Measured values published in patent US10597388B2, “Pyridazinone herbicides” (FMC CORPORATION, priority 2014, dated 2020).

Assays:
Format in all cases: in vivo
[1] = test system: galium (catchweed bedstraw, Galium aparine); assay: Test A greenhouse herbicide test, postemergence
Outline: (§1)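 Greenhouse postemergence test: formulated chemicals sprayed on one- to two-leaf plants (2 to 10 cm), grown in loam soil blended with sand. Injury assessed visually about 10 d later against untreated controls, scored 0 (no effect) to 100 (complete control).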

[2] = test system: blackgrass (Alopecurus myosuroides); assay: Test A greenhouse herbicide test, postemergence
Outline: as §1

[3] = test system: galium (catchweed bedstraw, Galium aparine); assay: Test C greenhouse herbicide test, pre- and postemergence
Outline: (§2)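 Each species was treated both before emergence, in a loam–sand soil mix, and after emergence, as 1- to 4-leaf seedlings in peat-based potting medium. Plants stayed in the greenhouse 13 to 15 d, then were scored from 0 (no effect) to 100 (complete control) relative to controls.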

[4] = test system: nutsedge, yellow (yellow nutsedge, Cyperus esculentus); assay: as above
Outline: as §2

[5] = test system: ragweed (common ragweed, Ambrosia elatior); assay: as above
Outline: as §2

[6] = test system: pigweed (Amaranthus retroflexus); assay: as above
Outline: as §2

[7] = test system: velvetleaf (Abutilon theophrasti); assay: as above
Outline: as §2

[8] = test system: soybean (Glycine max); assay: as above
Outline: as §2

[9] = test system: blackgrass (Alopecurus myosuroides); assay: as above
Outline: as §2

[10] = test system: barnyardgrass (Echinochloa crus-galli); assay: as above
Outline: as §2

[11] = test system: ryegrass, Italian (Italian ryegrass, Lolium multiflorum); assay: as above
Outline: as §2

[12] = test system: chickweed (common chickweed, Stellaria media); assay: Test C greenhouse herbicide test, postemergence
Outline: (§3)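 Postemergence foliar treatment, 1- to 4-leaf stage (2–18 cm), peat/vermiculite medium; greenhouse 13–15 d; visual rating vs controls, 0 = no effect, 100 = complete control; dash = no result.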

[13] = test system: oat, wild (wild oat, Avena fatua); assay: Test C greenhouse herbicide test, postemergence
Outline: as §3

[14] = test system: kochia (Kochia scoparia); assay: Test C greenhouse herbicide test, postemergence
Outline: as §3

[15] = 125 g ai/ha, visual rating after approx. 10 d, 0 to 100 scale (0 no effect, 100 complete control)
[16] = 500 g ai/ha, 0 to 100 scale, 0 is no effect, 100 is complete control
[17] = Postemergence, 31 g ai/ha, 0 to 100 scale (0 no effect, 100 complete control)
[18] = Postemergence, 125 g ai/ha, scale 0 to 100, 0 is no effect, 100 is complete control
[19] = Postemergence, 250 g ai/ha, scale 0 to 100, 0 no effect, 100 complete control, 13 to 15 d
[20] = Preemergence, 31 g ai/ha, scale 0 to 100, 0 is no effect, 100 is complete control
[21] = Preemergence, 62 g ai/ha, scale 0 to 100, 0 is no effect, 100 is complete control
[22] = Preemergence, 125 g ai/ha, scale 0 to 100, 0 is no effect, 100 is complete control
[23] = Preemergence, 250 g ai/ha, scale 0 to 100, 0 no effect, 100 complete control
[24] = postemergence, 62 g ai/ha, scale 0 to 100, 0 no effect, 100 complete control

Structure (SMILES): Cc1nn(C)c(=O)c(-c2c(C)sc3ccc(Br)cc23)c1O [Compound 22]
- Plant response rating, Galium [1, 15]: 90
- Galium plant response rating [1, 16]: 100
- Plant response rating, Blackgrass [2, 15]: 50
- Blackgrass plant response rating [2, 16]: 70
- Galium plant response rating [3, 17]: 90
- Plant response rating, Galium [3, 18]: 95
- Plant response rating, Galium [3, 19]: 95
- Plant response rating, Galium [3, 20]: 90
- Plant response rating, Galium [3, 21]: 90
- Plant response rating, Galium [3, 22]: 95
- Galium plant response rating [3, 23]: 95
- Galium plant response rating [3, 24]: 90
- Nutsedge, Yellow plant response rating [4, 17]: 35
- Plant response rating, Nutsedge, Yellow [4, 18]: 65
- Plant response rating, Nutsedge, Yellow [4, 19]: 65
- Plant response rating, Nutsedge, Yellow [4, 20]: 55
- Plant response rating, Nutsedge, Yellow [4, 21]: 45
- Plant response rating, Nutsedge, Yellow [4, 22]: 70
- Nutsedge, Yellow plant response rating [4, 23]: 70
- Nutsedge, Yellow plant response rating [4, 24]: 50
- Ragweed plant response rating [5, 17]: 70
- Plant response rating, Ragweed [5, 18]: 90
- Plant response rating, Ragweed [5, 19]: 100
- Plant response rating, Ragweed [5, 20]: 30
- Plant response rating, Ragweed [5, 21]: 75
- Plant response rating, Ragweed [5, 22]: 90
- Ragweed plant response rating [5, 23]: 100
- Ragweed plant response rating [5, 24]: 75
- Pigweed plant response rating [6, 17]: 85
- Plant response rating, Pigweed [6, 18]: 90
- Plant response rating, Pigweed [6, 19]: 98
- Plant response rating, Pigweed [6, 20]: 60
- Plant response rating, Pigweed [6, 21]: 100
- Plant response rating, Pigweed [6, 22]: 100
- Pigweed plant response rating [6, 23]: 100
- Pigweed plant response rating [6, 24]: 75
- Velvetleaf plant response rating [7, 17]: 20
- Plant response rating, Velvetleaf [7, 18]: 80
- Plant response rating, Velvetleaf [7, 19]: 80
- Plant response rating, Velvetleaf [7, 21]: 60
- Plant response rating, Velvetleaf [7, 22]: 75
- Velvetleaf plant response rating [7, 23]: 98
- Velvetleaf plant response rating [7, 24]: 50
- Soybean plant response rating [8, 17]: 0
- Plant response rating, Soybean [8, 18]: 0
- Plant response rating, Soybean [8, 19]: 0
- Plant response rating, Soybean [8, 21]: 0
- Plant response rating, Soybean [8, 22]: 0
- Soybean plant response rating [8, 23]: 5
- Soybean plant response rating [8, 24]: 0
- Blackgrass plant response rating [9, 17]: 0
- Plant response rating, Blackgrass [9, 18]: 20
- Plant response rating, Blackgrass [9, 19]: 20
- Plant response rating, Blackgrass [9, 20]: 5
- Plant response rating, Blackgrass [9, 21]: 20
- Plant response rating, Blackgrass [9, 22]: 40
- Blackgrass plant response rating [9, 23]: 45
- Blackgrass plant response rating [9, 24]: 0
- Barnyardgrass plant response rating [10, 17]: 5
- Plant response rating, Barnyardgrass [10, 18]: 10
- Plant response rating, Barnyardgrass [10, 19]: 15
- Plant response rating, Barnyardgrass [10, 20]: 5
- Plant response rating, Barnyardgrass [10, 21]: 5
- Plant response rating, Barnyardgrass [10, 22]: 5
- Barnyardgrass plant response rating [10, 23]: 60
- Barnyardgrass plant response rating [10, 24]: 5
- Ryegrass, Italian plant response rating [11, 17]: 60
- Plant response rating, Ryegrass, Italian [11, 18]: 90
- Plant response rating, Ryegrass, Italian [11, 19]: 90
- Plant response rating, Ryegrass, Italian [11, 20]: 90
- Plant response rating, Ryegrass, Italian [11, 21]: 90
- Plant response rating, Ryegrass, Italian [11, 22]: 95
- Ryegrass, Italian plant response rating [11, 23]: 95
- Ryegrass, Italian plant response rating [11, 24]: 70
- Chickweed plant response rating [12, 17]: 90
- Plant response rating, Chickweed [12, 18]: 95
- Plant response rating, Chickweed [12, 19]: 98
- Chickweed plant response rating [12, 24]: 90
- Oat, Wild plant response rating [13, 17]: 40
- Plant response rating, Oat, Wild [13, 18]: 80
- Plant response rating, Oat, Wild [13, 19]: 80
- Oat, Wild plant response rating [13, 24]: 50
- Kochia plant response rating [14, 17]: 90
- Plant response rating, Kochia [14, 18]: 95
- Plant response rating, Kochia [14, 19]: 95
- Kochia plant response rating [14, 24]: 95
